In PubChem BioAssay AID1259407 (Chemical Carcinogenesis Research Information System (CCRIS), 2018) one finds mutagenic call data, which are given here for four molecules.

SMILES strings stand for the structures. Calls of active or inactive are those of the source. The rule behind the calls is not given here.

The data set relates to CCRIS mutagenicity, Ames/micronucleus/aberration tests. As to the kind of experiment: CCRIS mutagenicity studies.

Take `Nc1nc(-c2ccc([N+](=O)[O-])cc2)nc2c1ncn2-c1ccc([N+](=O)[O-])cc1`: the mutagenic call is “active; positive” (Test System: AMES SALMONELLA TYPHIMURIUM, Strain/Indicator: TA98(1,8-DNP), Metabolic Activation: NONE, Method: PREINCUBATION); “active; positive” (Test System: AMES SALMONELLA TYPHIMURIUM, Strain/Indicator: TA98(1,8-DNP), Metabolic Activation: RAT, LIVER, S-9, PCB, Method: PREINCUBATION); “active; positive” (Test System: AMES SALMONELLA TYPHIMURIUM, Strain/Indicator: TA98(NR), Metabolic Activation: NONE, Method: PREINCUBATION); “active; positive” (Test System: AMES SALMONELLA TYPHIMURIUM, Strain/Indicator: TA98(NR), Metabolic Activation: RAT, LIVER, S-9, PCB, Method: PREINCUBATION); “active; positive” (Test System: AMES SALMONELLA TYPHIMURIUM, Strain/Indicator: TA98, Metabolic Activation: NONE, Method: PREINCUBATION); “active; positive” (Test System: AMES SALMONELLA TYPHIMURIUM, Strain/Indicator: TA98, Metabolic Activation: RAT, LIVER, S-9, PCB, Method: PREINCUBATION). The mutagenic call is “active; positive” (Test System: AMES SALMONELLA TYPHIMURIUM, Strain/Indicator: TA100(1,8-DNP), Metabolic Activation: NONE, Method: PREINCUBATION); “inactive; negative” (Test System: AMES SALMONELLA TYPHIMURIUM, Strain/Indicator: TA100(1,8-DNP), Metabolic Activation: RAT, LIVER, S-9, PCB, Method: PREINCUBATION); “active; positive” (Test System: AMES SALMONELLA TYPHIMURIUM, Strain/Indicator: TA100(NR), Metabolic Activation: NONE, Method: PREINCUBATION); “inactive; negative” (Test System: AMES SALMONELLA TYPHIMURIUM, Strain/Indicator: TA100(NR), Metabolic Activation: RAT, LIVER, S-9, PCB, Method: PREINCUBATION); “active; positive” (Test System: AMES SALMONELLA TYPHIMURIUM, Strain/Indicator: TA100, Metabolic Activation: NONE, Method: PREINCUBATION); “active; positive” (Test System: AMES SALMONELLA TYPHIMURIUM, Strain/Indicator: TA100, Metabolic Activation: RAT, LIVER, S-9, PCB, Method: PREINCUBATION). Moreover, the mutagenic call was “active; positive” (Test System: AMES SALMONELLA TYPHIMURIUM, Strain/Indicator: YG1020, Metabolic Activation: NONE, Method: PREINCUBATION); “active; positive” (Test System: AMES SALMONELLA TYPHIMURIUM, Strain/Indicator: YG1020, Metabolic Activation: RAT, LIVER, S-9, PCB, Method: PREINCUBATION); “active; positive” (Test System: AMES SALMONELLA TYPHIMURIUM, Strain/Indicator: YG1021, Metabolic Activation: NONE, Method: PREINCUBATION); “active; positive” (Test System: AMES SALMONELLA TYPHIMURIUM, Strain/Indicator: YG1021, Metabolic Activation: RAT, LIVER, S-9, PCB, Method: PREINCUBATION); “active; positive” (Test System: AMES SALMONELLA TYPHIMURIUM, Strain/Indicator: YG1024, Metabolic Activation: NONE, Method: PREINCUBATION); “active; positive” (Test System: AMES SALMONELLA TYPHIMURIUM, Strain/Indicator: YG1024, Metabolic Activation: RAT, LIVER, S-9, PCB, Method: PREINCUBATION). In addition, the mutagenic call reads like this: (Test System: AMES SALMONELLA TYPHIMURIUM, Strain/Indicator: YG1025, Metabolic Activation: NONE, Method: PREINCUBATION) “active; positive”; (Test System: AMES SALMONELLA TYPHIMURIUM, Strain/Indicator: YG1025, Metabolic Activation: RAT, LIVER, S-9, PCB, Method: PREINCUBATION) “active; positive”; (Test System: AMES SALMONELLA TYPHIMURIUM, Strain/Indicator: YG1026, Metabolic Activation: NONE, Method: PREINCUBATION) “active; positive”; (Test System: AMES SALMONELLA TYPHIMURIUM, Strain/Indicator: YG1026, Metabolic Activation: RAT, LIVER, S-9, PCB, Method: PREINCUBATION) “active; positive”; (Test System: AMES SALMONELLA TYPHIMURIUM, Strain/Indicator: YG1029, Metabolic Activation: NONE, Method: PREINCUBATION) “active; positive”; (Test System: AMES SALMONELLA TYPHIMURIUM, Strain/Indicator: YG1029, Metabolic Activation: RAT, LIVER, S-9, PCB, Method: PREINCUBATION) “active; positive”.

For the molecule `c1cc(-c2ccncc2)ccn1`, the mutagenic call is “inactive; negative” (Test System: AMES SALMONELLA TYPHIMURIUM, Strain/Indicator: TA97, Metabolic Activation: RAT, LIVER, S-9, PHENOBARBITAL, Method: STANDARD PLATE); “active; positive” (Test System: AMES SALMONELLA TYPHIMURIUM, Strain/Indicator: TA97, Metabolic Activation: RAT, LIVER, S-9, SODIUM PHENOBARBITAL, Method: PREINCUBATION); “inactive; negative” (Test System: AMES SALMONELLA TYPHIMURIUM, Strain/Indicator: TA98, Metabolic Activation: RAT, LIVER, S-9, PHENOBARBITAL, Method: STANDARD PLATE); “inactive; negative” (Test System: AMES SALMONELLA TYPHIMURIUM, Strain/Indicator: TA100, Metabolic Activation: RAT, LIVER, S-9, PHENOBARBITAL, Method: STANDARD PLATE); “active; positive” (Test System: AMES SALMONELLA TYPHIMURIUM, Strain/Indicator: TA100, Metabolic Activation: RAT, LIVER, S-9, SODIUM PHENOBARBITAL, Method: PREINCUBATION); “inactive; negative” (Test System: AMES SALMONELLA TYPHIMURIUM, Strain/Indicator: TA1535, Metabolic Activation: RAT, LIVER, S-9, PHENOBARBITAL, Method: STANDARD PLATE). Besides, the mutagenic call was “active; positive” (Test System: AMES SALMONELLA TYPHIMURIUM, Strain/Indicator: TA1537, Metabolic Activation: RAT, LIVER, S-9, PHENOBARBITAL, Method: STANDARD PLATE) and “inactive; negative” (Test System: AMES SALMONELLA TYPHIMURIUM, Strain/Indicator: TA1538, Metabolic Activation: RAT, LIVER, S-9, PHENOBARBITAL, Method: STANDARD PLATE).

Regarding `CCN(CC)CC(=O)Nc1c(C(=O)c2ccccc2F)c(C)nn1C`, the mutagenic call by setting is: (Test System: AMES SALMONELLA TYPHIMURIUM, Strain/Indicator: TA98, Metabolic Activation: RAT, LIVER, S-9, AROCLOR 1254, Method: PREINCUBATION) “active; positive”; (Test System: AMES SALMONELLA TYPHIMURIUM, Strain/Indicator: TA98, Metabolic Activation: RAT, LIVER, S-9, AROCLOR 1254, Method: STANDARD PLATE) “inactive; negative”; (Test System: AMES SALMONELLA TYPHIMURIUM, Strain/Indicator: TA100, Metabolic Activation: RAT, LIVER, S-9, AROCLOR 1254, Method: PREINCUBATION) “active; positive”; (Test System: AMES SALMONELLA TYPHIMURIUM, Strain/Indicator: TA100, Metabolic Activation: RAT, LIVER, S-9, AROCLOR 1254, Method: STANDARD PLATE) “inactive; negative”.

On to `COc1cc(C(=O)OCCCN2CCCN(CCCOC(=O)c3cc(OC)c(OC)c(OC)c3)CC2)cc(OC)c1OC`, for which the mutagenic call by setting is: (Test System: AMES SALMONELLA TYPHIMURIUM, Strain/Indicator: TA98, Metabolic Activation: NONE) “inactive; negative”; (Test System: AMES SALMONELLA TYPHIMURIUM, Strain/Indicator: TA98, Metabolic Activation: RAT, LIVER, S-9, PHENOBARBITAL AND 5,6-BENZOFLAVONE) “inactive; negative”; (Test System: AMES SALMONELLA TYPHIMURIUM, Strain/Indicator: TA100, Metabolic Activation: NONE) “inactive; negative”; (Test System: AMES SALMONELLA TYPHIMURIUM, Strain/Indicator: TA100, Metabolic Activation: RAT, LIVER, S-9, PHENOBARBITAL AND 5,6-BENZOFLAVONE) “inactive; negative”; (Test System: AMES SALMONELLA TYPHIMURIUM, Strain/Indicator: TA1535, Metabolic Activation: NONE) “inactive; negative”; (Test System: AMES SALMONELLA TYPHIMURIUM, Strain/Indicator: TA1535, Metabolic Activation: RAT, LIVER, S-9, PHENOBARBITAL AND 5,6-BENZOFLAVONE) “inactive; negative”. The mutagenic call by setting is: (Test System: AMES SALMONELLA TYPHIMURIUM, Strain/Indicator: TA1537, Metabolic Activation: NONE) “inactive; negative”; (Test System: AMES SALMONELLA TYPHIMURIUM, Strain/Indicator: TA1537, Metabolic Activation: RAT, LIVER, S-9, PHENOBARBITAL AND 5,6-BENZOFLAVONE) “inactive; negative”; (Test System: E. COLI, Strain/Indicator: WP2 UVRA, Metabolic Activation: NONE) “inactive; negative”; (Test System: E. COLI, Strain/Indicator: WP2 UVRA, Metabolic Activation: RAT, LIVER, S-9, PHENOBARBITAL AND 5,6-BENZOFLAVONE) “inactive; negative”.
